{
  "source": "patent US9884833B2",
  "about": "“Crystalline forms of neurotrophin mimetic compounds and their salts” (Pharmatrophix, Inc., priority 2012, dated 2018)",
  "format_in_all_cases": "physicochemical",
  "key": {"[1]": {"assay": "Non-competitive slurry experiments (solid form stability)", "source_text": "In addition to the solvent recrystallization experiments, non-competitive slurry experiments were perfoi ined to search for new solid state forms. These experiments rely on solubility differences of different polymorphic forms (if the compound is polymorphic). […] Essentially, when a solid is mixed with solvent as slurry, a saturated solution eventually results. The solution is saturated with respect to the polymorphic form dissolved.\nIn addition, noncompetitive slurry experiments are often useful in identifying solvents that form solvates with the compound.\nThe slurry experiments were performed by exposing excess “starting” material (Form A) to neat (single) and binary solvent mixtures and agitating the resulting suspensions for several days at ambient temperature. The solids were vacuum filtered and analyzed by XRD to determine the resulting form. To avoid possible desolvation or physical change after isolation, the samples were not further dried before X-ray analysis."}, "[2]": {"assay": "Static vapor sorption studies in humidity chambers", "conditions": "for weight gain by TGA: after 40 days", "source_text": "Static vapor sorption studies were done in hermetic humidity chambers using saturated salts, or environmental humidity chambers to control the temperature and humidity. Data collected during dynamic vapor sorption studies often are not at theiniodynamic equilibrium. To gain a better understanding of the water uptake and the critical humidity level of the API, samples of the starting material (Form A) were monitored in static humidity chambers to allow the sample to equilibrate with aerial moisture.\nIn these studies, water vapor sorption was determined gravimetrically (or by Thermogravimetric analysis) by storing samples in open aluminum dishes. Samples were stored at 8 different humidities (23, 33, 43, 53, 60, 69, 75 and 84% RH) at ambient temperature. A few hundred milligrams of Form A was staged at each humidity condition.\nThe samples were examined periodically either by recording the weight change or by monitoring the water content by Karl Fischer or TGA, and/or XRD pattern. […] The samples stored at humidities higher than 60% RH deliquesced after 10 days."}, "[3]": {"assay": "Hygroscopicity by dynamic vapor sorption (DVS)", "conditions": "for water uptake: 0-55% RH; for water uptake (sorption maximum): 95% RH", "procedure": "Samples were analyzed using an automated dynamic vapor sorption analyzer. The sample (about 1-10 mg) was dried in the instrument 0% RH for 6 hours. The samples were subjected to 0 to 95% RH back to 5% RH at 25° C. in 5% RH steps.\nThe water content of the as received material was determined by Karl Fischer to be approximately 0.3 wt %. The moisture sorption-desorption isotherms (FIGS. 3A and 3B) were collected using dynamic vapor sorption (DVS) analysis. […] A hydrate may also form near 60% RH.\nFIGS. 3A and 3B show the moisture sorption-desorption isotherm and the kinetic plots for Form A. This sample may undergo hydrate formation ≧60% RH, although the shape of the isotherm is less than ideal.\nTo understand this further a fresh sample of starting material was staged at 60% RH in DVS for about 3 hours allowing sample to gain about 4 wt %. […] FIG. 21."}, "[4]": {"assay": "Visual solubility measurement in various solvents", "procedure": "About 100 mg of disulfate starting material was placed into each of 26 vials. Solvents were added and the vials were stirred for 30 minutes, followed by visual observation for remaining solids. Additional solvent was incrementally added until the solids were dissolved, or a maximum volume of solvent was added and the experiment was terminated. This solubility data was used in designing experiments, selecting the solvents, anti-solvents for crystallization and slurry experiments, sample consumption, etc."}, "[5]": {"conditions": "stored at 60% RH, then dried at ~45° C. under vacuum for about 15 days"}, "[6]": {"conditions": "DVS sorption, 25° C., listed as 2-amino-3-methyl-N-(2-morpholinoethyl)-pentanamide disulfate"}},
  "data": [
    {"substance": "2-amino-3-methyl-N-(2-morpholinoethyl)-pentanamide disulfate [Form A]", "values": [
      {"measurement": "Final Form", "setting": "[1]; slurry in DMA, 27 days, ambient temperature, by XRD", "value": "monosulfate"},
      {"measurement": "Final Form", "setting": "[1]; slurry in DMF/2-propanol (1/1), 19 days", "value": "monosulfate"},
      {"measurement": "Final Form", "setting": "[1]; slurry in DMF/2-propanol (1/2), 19 days", "value": "monosulfate"},
      {"measurement": "Final Form", "setting": "[1]; slurry in DMF/2-propanol (2/1), 19 days", "value": "monosulfate"},
      {"measurement": "Final Form", "setting": "[1]; slurry in DMF/acetone (1/1), 19 days", "value": "monosulfate"},
      {"measurement": "Final Form", "setting": "[1]; slurry in DMF/acetone (1/2), 19 days", "value": "monosulfate"},
      {"measurement": "Final Form", "setting": "[1]; slurry in DMF/acetone (2/1), 19 days", "value": "monosulfate"},
      {"measurement": "Final Form", "setting": "[1]; slurry in DMF/heptane (1/1), 19 days", "value": "monosulfate"},
      {"measurement": "Final Form", "setting": "[1]; slurry in DMF/heptane (1/2), 19 days", "value": "monosulfate"},
      {"measurement": "Final Form", "setting": "[1]; slurry in DMF/heptane (2/1), 19 days", "value": "monosulfate"},
      {"measurement": "Final Form", "setting": "[1]; slurry in water, duration n/a", "value": "all dissolved"},
      {"measurement": "weight gain by TGA", "setting": "[2]; stored at 43% RH", "value": "approximately 1.0 wt %"},
      {"measurement": "weight gain by TGA", "setting": "[2]; stored at 53% RH", "value": "~1.3", "unit": "wt %"},
      {"measurement": "state after storage", "setting": "[2]; stored at 60% RH, after 27 days", "value": "mostly deliquesced"},
      {"measurement": "weight gain", "setting": "[2]; stored at 60% RH, in 20 days", "value": "approximately 6 wt %"},
      {"measurement": "XRD after storage and drying", "setting": "[2]; [5]", "value": "identical to starting material"},
      {"measurement": "weight by TGA after drying", "setting": "[2]; [5]", "value": "approximately 3.3 wt %"},
      {"measurement": "state after storage", "setting": "[2]; stored at humidities higher than 60% RH, ambient temperature, after 10 days", "value": "deliquesced"},
      {"measurement": "weight gain", "setting": "[2]; stored at humidities lower than 43% RH, ambient temperature, after 15 days", "value": "minimaUno weight gain"},
      {"measurement": "water remaining in desorption phase", "setting": "[3]; DVS desorption, 65% RH, 25° C.", "value": "~23", "unit": "wt %"},
      {"measurement": "mass above original value at end of desorption cycle", "setting": "[3]; DVS desorption", "value": "~4", "unit": "wt %"},
      {"measurement": "mass above original value at end of desorption cycle", "setting": "[3]; DVS desorption, listed as 2-amino-3-methyl-N-(2-morpholinoethyl)-pentanamide disulfate", "value": "about 4 wt %"},
      {"measurement": "water uptake", "setting": "[3]; DVS sorption, 25° C.", "value": 2, "unit": "wt %"},
      {"measurement": "water uptake", "setting": "[3]; [6]", "value": "did not sorb much water"},
      {"measurement": "water uptake (total)", "setting": "[3]; DVS sorption, 65% RH, 25° C.", "value": "~23", "unit": "wt %"},
      {"measurement": "water uptake (sorption maximum)", "setting": "[3]; DVS sorption, 25° C.", "value": "approximately 225 wt %"},
      {"measurement": "water uptake (sorption maximum)", "setting": "[3]; [6]", "value": "up to 225 wt %"},
      {"measurement": "behaviour at high humidity", "setting": "[3]; DVS, high humidity, followed by glass formation upon evaporation", "value": "Apparent deliquescence"},
      {"measurement": "weight gain", "setting": "[3]; fresh sample staged at 60% RH in DVS for about 3 hours", "value": "about 4 wt %"},
      {"measurement": "relative humidity at which hydrate forms", "setting": "[3]; from DVS isotherm, 25° C.", "value": "~60", "unit": "% RH"},
      {"measurement": "Approx. Solubility", "setting": "[4]; 1-butanol", "value": "≦1.67 mg/mL"},
      {"measurement": "Approx. Solubility", "setting": "[4]; 1-propanol", "value": "≦1.67 mg/mL"},
      {"measurement": "Approx. Solubility", "setting": "[4]; 2-butanol", "value": "≦1.67 mg/mL"},
      {"measurement": "Approx. Solubility", "setting": "[4]; 2-propanol", "value": "≦1.67 mg/mL"},
      {"measurement": "Approx. Solubility", "setting": "[4]; acetone", "value": "≦1.67 mg/mL"},
      {"measurement": "Approx. Solubility", "setting": "[4]; acetonitrile", "value": "≦1.67 mg/mL"},
      {"measurement": "Approx. Solubility", "setting": "[4]; butylamine", "value": "≦1.67 mg/mL"},
      {"measurement": "Approx. Solubility", "setting": "[4]; chloroform", "value": "≦1.67 mg/mL"},
      {"measurement": "Approx. Solubility", "setting": "[4]; dichloromethane", "value": "≦1.67 mg/mL"},
      {"measurement": "Approx. Solubility", "setting": "[4]; diisopropylamine", "value": "≦1.67 mg/mL"},
      {"measurement": "Approx. Solubility", "setting": "[4]; dimethylacetamide (DMA)", "value": "≦1.67 mg/mL"},
      {"measurement": "Approx. Solubility", "setting": "[4]; dimethylformamide (DMF)", "value": "~1670", "unit": "µg/mL"},
      {"measurement": "Approx. Solubility", "setting": "[4]; ethanol", "value": "≧50 mg/mL"},
      {"measurement": "Approx. Solubility", "setting": "[4]; ethyl acetate (EtOAc)", "value": "≦1.67 mg/mL"},
      {"measurement": "Approx. Solubility", "setting": "[4]; heptane", "value": "≦1.67 mg/mL"},
      {"measurement": "Approx. Solubility", "setting": "[4]; isopropyl acetate", "value": "≦1.67 mg/mL"},
      {"measurement": "Approx. Solubility", "setting": "[4]; isopropyl ether", "value": "≦1.67 mg/mL"},
      {"measurement": "Approx. Solubility", "setting": "[4]; methanol, stirred 30 minutes", "value": "≧100 mg/mL"},
      {"measurement": "Approx. Solubility", "setting": "[4]; methyl ethyl ketone (MEK)", "value": "≦1.67 mg/mL"},
      {"measurement": "Approx. Solubility", "setting": "[4]; methyl-t-butyl ether (MTBE)", "value": "≦1.67 mg/mL"},
      {"measurement": "Approx. Solubility", "setting": "[4]; nitromethane", "value": "≦1.67 mg/mL"},
      {"measurement": "Approx. Solubility", "setting": "[4]; pyridine", "value": "≦1.67 mg/mL"},
      {"measurement": "Approx. Solubility", "setting": "[4]; tetrahydrofuran (THF)", "value": "≦1.67 mg/mL"},
      {"measurement": "Approx. Solubility", "setting": "[4]; toluene", "value": "≦1.67 mg/mL"},
      {"measurement": "Approx. Solubility", "setting": "[4]; trifluoroethanol", "value": "≧50 mg/mL"},
      {"measurement": "Approx. Solubility", "setting": "[4]; water", "value": "≧100 mg/mL"}
    ]}
  ]
}
